This note sets out measurements from US7649092B2, “Urea derivatives as calcium channel blockers” (Neuromed Pharmaceuticals Ltd., priority 2004, dated 2010).

The structures appear in SMILES notation. Like-named read-outs stand apart in the source and are kept apart here.

The target of assay [1] is T1, rat brain N-type calcium channel subunits (α1B+α2δ+β1b cDNA subunits) (Rattus norvegicus, UniProt Q02294).
T1 construct: expressed in transfected cells
Briefly: N-type calcium channel block, whole cell patch clamp in HEK 293 cells. The settings on record: holding potential −80 mV to +10 mV. It counts as cell-based. The procedure:
N-type calcium channel blocking activity was assayed in human embryonic kidney cells, HEK 293, stably transfected with the rat brain N-type calcium channel subunits (α1B+α2δ+β1b cDNA subunits). Alternatively, N-type calcium channels (α1B+α2δ+β1b cDNA subunits), L-type channels (α1C+α2δ+β1b cDNA subunits) and P/Q-type channels (α1A+α2δ+β1b cDNA subunits) were transiently expressed in HEK 293 cells. Briefly, cells were cultured in Dulbecco's modified eagle medium (DMEM) supplemented with 10% fetal bovine serum, 200 U/ml penicillin and 0.2 mg/ml streptomycin at 37° C. with 5% CO2. At 85% confluency cells were split with 0.25% trypsin/1 mM EDTA and plated at 10% confluency on glass coverslips. At 12 hours the medium was replaced and the cells transiently transfected using a standard calcium phosphate protocol and the appropriate calcium channel cDNA's. Fresh DMEM was supplied and the cells transferred to 28° C./5% CO2. Cells were incubated for 1 to 2 days prior to whole cell recording.
Whole cell patch clamp experiments were performed using an Axopatch 200B amplifier (Axon Instruments, Burlingame, Calif.) linked to a personal computer equipped with pCLAMP software. The external and internal recording solutions contained, respectively, 5 mM BaCl2, 10 mM MgCl2, 10 mM HEPES, 40 mM TEAC1, 10 mM glucose, 87.5 mM CsCl (pH 7.2) and 108 mM CsMS, 4 mM MgCl2, 9 mM EGTA, 9 mM HEPES (pH 7.2). Currents were typically elicited from a holding potential of −80 mV to +10 mV using Clampex software (Axon Instruments). Typically, currents were first elicited with low frequency stimulation (0.067 Hz) and allowed to stabilize prior to application of the compounds. The compounds were then applied during the low frequency pulse trains for two to three minutes to assess tonic block, and subsequently the pulse frequency was increased to 0.2 Hz to assess frequency dependent block. Data were analyzed using Clampfit (Axon Instruments) and SigmaPlot 4.0 (Jandel Scientific).
In general terms: The patch-clamp technique gives a direct electrical read-out from membranes.

Assay [2] deals with T2, human DiG T-type channels (Homo sapiens, UniProt O43497).
T2 construct: expressed in transfected cells
Briefly: T-type calcium channel block, whole-cell patch clamp in HEK cell lines. The class given is cell-based. As to the method:
Standard patch-clamp techniques were employed to identify blockers of T-type currents. Briefly, previously described HEK cell lines stably expressing human DiG T-type channels were used for all the recordings (passage #: 4-20, 37° C., 5% CO2). To obtain T-type currents, plastic dishes containing semi-confluent cells were positioned on the stage of a ZEISS AXIOVERT S100 microscope after replacing the culture medium with external solution (see below). Whole-cell patches were obtained using pipettes (borosilicate glass with filament, O.D.: 1.5 mm, I.D.: 0.86 mm, 10 cm length), fabricated on a SUTTER P-97 puller with resistance values of ˜5 MΩ (see below for internal solution).
In the non-inactivating protocol, the holding potential is set at −110 mV and with a pre-pulse at −100 mV for 1 second prior to the test pulse at −40 mV for 50 ms. […]
Test compounds were dissolved in external solution, 0.1-0.01% DMSO. After ˜10 min rest, they were applied by gravity close to the cell using a WPI microfil tubing. The “non-inactivated” pre-pulse was used to examine the resting block of a compound. The “inactivated” protocol was employed to study voltage-dependent block. However, the initial data shown below were mainly obtained using the non-inactivated protocol only. IC50 values are shown for various compounds of the invention in Table 5.

The subject of another assay is rat formalin model. Briefly: Formalin-induced pain model (paw flinches). It counts as in vivo. The conditions noted are these: 30 mg/kg IP, 10 min before formalin, ±SEM, saline control=100%. As to the method:
The effects of intrathecally delivered compounds of the invention on the rat formalin model were measured. The compounds were reconstituted to stock solutions of approximately 10 mg/ml in propylene glycol. Eight Holtzman male rats of 275-375 g size were randomly selected per test article.
The following study groups were used, with test article, vehicle control (propylene glycol) and saline delivered intraperitoneally (IP):
Prior to initiation of drug delivery baseline behavioral and testing data were taken.
On the morning of testing, a small metal band (0.5 g) was loosely placed around the right hind paw. The rat was placed in a cylindrical Plexiglas chamber for adaptation a minimum of 30 minutes. Test Article or Vehicle Control Article was administered 10 minutes prior to formalin injection (50 μl of 5% formalin) into the dorsal surface of the right hind paw of the rat. The animal was then placed into the chamber of the automated formalin apparatus where movement of the formalin injected paw was monitored and the number of paw flinches tallied by minute over the next 60 minutes (Malmberg, A. B., et al., Anesthesiology (1993) 79:270-281).
Results are presented as Maximum Possible Effect ±SEM, where saline control=100%.

The mark [3] stands for this setting: low frequency stimulation 0.067 Hz (tonic block), read-out: IC50 @ 0.067 Hz.
[4] abbreviates: pulse frequency 0.2 Hz (frequency dependent block), read-out: IC50 @ 0.2 Hz.
The mark [5] stands for this setting: inactivation protocol, @ −80 mV, read-out: IC50 @ −80 mV.
[6] abbreviates: non-inactivating protocol, pre-pulse −100 mV, test pulse −40 mV, read-out: IC50 @ −100 mV.

T1 sequence (Q02294 whole entry): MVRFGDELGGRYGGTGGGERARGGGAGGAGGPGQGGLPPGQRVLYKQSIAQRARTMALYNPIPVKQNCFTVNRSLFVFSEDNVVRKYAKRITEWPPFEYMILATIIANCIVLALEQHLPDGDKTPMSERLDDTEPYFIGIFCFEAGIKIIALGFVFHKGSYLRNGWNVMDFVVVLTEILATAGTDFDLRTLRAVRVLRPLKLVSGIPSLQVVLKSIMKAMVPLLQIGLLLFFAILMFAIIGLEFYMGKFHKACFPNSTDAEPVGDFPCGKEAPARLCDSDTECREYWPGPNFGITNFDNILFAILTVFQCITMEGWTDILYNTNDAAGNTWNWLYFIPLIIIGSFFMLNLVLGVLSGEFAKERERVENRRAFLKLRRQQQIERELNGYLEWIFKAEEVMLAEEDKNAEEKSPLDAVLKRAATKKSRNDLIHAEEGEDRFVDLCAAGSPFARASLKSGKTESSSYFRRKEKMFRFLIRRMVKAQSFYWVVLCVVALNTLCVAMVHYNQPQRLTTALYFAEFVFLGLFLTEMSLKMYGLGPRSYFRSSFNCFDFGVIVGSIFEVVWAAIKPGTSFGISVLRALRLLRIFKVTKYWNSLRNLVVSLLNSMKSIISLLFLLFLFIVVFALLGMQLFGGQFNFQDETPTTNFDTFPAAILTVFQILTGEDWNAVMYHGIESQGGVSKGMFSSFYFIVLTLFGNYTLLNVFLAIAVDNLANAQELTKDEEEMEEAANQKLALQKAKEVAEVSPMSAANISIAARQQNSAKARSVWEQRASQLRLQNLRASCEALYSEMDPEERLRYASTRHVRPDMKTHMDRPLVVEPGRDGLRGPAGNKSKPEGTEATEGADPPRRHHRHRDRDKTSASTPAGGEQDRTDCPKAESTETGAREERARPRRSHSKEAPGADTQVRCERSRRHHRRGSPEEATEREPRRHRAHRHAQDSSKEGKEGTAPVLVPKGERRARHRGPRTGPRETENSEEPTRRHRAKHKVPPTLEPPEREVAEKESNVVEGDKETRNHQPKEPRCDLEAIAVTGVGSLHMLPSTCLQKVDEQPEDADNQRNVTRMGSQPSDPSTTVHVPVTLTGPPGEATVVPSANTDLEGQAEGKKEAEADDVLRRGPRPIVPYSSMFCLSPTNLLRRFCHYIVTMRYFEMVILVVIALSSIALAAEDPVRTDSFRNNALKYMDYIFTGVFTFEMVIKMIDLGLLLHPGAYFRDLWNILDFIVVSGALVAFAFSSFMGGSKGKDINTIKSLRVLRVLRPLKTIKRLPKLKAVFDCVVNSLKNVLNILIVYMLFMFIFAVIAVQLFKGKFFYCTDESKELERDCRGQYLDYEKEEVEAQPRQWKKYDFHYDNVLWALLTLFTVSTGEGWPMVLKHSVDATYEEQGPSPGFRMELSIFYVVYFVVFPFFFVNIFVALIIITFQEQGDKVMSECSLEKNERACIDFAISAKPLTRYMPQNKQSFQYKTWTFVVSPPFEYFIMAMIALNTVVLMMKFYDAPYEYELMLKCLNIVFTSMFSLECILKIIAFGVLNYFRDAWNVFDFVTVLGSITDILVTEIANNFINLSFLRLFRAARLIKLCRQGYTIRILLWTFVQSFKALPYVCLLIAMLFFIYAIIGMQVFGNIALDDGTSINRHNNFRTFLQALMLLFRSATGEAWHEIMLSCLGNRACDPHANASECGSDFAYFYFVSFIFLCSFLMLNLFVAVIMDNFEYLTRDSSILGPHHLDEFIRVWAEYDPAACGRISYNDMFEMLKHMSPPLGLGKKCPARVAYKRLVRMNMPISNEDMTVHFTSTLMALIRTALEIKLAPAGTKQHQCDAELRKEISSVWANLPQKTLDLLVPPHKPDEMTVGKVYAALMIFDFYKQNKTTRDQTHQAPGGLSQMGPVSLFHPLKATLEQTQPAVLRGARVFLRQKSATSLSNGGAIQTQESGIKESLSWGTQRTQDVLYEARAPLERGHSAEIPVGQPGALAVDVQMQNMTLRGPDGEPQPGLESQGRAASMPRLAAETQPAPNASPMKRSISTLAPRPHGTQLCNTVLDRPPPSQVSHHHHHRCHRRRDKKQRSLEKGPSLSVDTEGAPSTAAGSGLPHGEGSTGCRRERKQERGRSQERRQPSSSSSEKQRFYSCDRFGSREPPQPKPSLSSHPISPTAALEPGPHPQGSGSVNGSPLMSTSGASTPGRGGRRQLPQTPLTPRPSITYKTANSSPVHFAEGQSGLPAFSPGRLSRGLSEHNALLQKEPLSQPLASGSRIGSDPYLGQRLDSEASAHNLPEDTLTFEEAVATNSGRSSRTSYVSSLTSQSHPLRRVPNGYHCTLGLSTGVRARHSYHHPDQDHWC
T1 sequence (P54290 25-1091 partner): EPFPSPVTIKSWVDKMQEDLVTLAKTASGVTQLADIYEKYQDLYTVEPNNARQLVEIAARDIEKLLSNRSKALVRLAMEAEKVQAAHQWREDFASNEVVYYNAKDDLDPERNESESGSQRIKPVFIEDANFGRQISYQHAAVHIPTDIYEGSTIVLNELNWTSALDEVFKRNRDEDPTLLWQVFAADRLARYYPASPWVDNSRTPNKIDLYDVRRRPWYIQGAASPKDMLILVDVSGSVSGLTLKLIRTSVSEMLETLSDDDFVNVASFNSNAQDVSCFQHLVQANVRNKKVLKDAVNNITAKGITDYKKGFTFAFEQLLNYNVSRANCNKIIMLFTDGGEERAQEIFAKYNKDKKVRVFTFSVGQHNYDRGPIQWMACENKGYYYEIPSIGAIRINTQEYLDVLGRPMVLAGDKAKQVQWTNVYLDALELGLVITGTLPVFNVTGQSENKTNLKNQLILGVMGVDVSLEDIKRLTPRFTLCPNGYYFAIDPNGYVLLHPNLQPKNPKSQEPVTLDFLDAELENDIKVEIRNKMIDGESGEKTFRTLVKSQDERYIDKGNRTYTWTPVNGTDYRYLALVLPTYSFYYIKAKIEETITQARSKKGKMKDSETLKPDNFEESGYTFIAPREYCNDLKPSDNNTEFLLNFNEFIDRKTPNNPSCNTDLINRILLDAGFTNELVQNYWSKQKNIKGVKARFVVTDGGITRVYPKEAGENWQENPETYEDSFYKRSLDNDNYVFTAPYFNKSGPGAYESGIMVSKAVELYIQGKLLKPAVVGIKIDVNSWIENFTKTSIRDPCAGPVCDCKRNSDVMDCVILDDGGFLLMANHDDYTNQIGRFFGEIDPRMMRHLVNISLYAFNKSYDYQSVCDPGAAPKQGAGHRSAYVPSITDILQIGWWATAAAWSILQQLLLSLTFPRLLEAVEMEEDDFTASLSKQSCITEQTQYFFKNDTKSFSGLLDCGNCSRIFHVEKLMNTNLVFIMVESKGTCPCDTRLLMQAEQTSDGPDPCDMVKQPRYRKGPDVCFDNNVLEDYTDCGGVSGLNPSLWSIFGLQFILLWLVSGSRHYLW
T1 sequence (P54283 whole entry partner): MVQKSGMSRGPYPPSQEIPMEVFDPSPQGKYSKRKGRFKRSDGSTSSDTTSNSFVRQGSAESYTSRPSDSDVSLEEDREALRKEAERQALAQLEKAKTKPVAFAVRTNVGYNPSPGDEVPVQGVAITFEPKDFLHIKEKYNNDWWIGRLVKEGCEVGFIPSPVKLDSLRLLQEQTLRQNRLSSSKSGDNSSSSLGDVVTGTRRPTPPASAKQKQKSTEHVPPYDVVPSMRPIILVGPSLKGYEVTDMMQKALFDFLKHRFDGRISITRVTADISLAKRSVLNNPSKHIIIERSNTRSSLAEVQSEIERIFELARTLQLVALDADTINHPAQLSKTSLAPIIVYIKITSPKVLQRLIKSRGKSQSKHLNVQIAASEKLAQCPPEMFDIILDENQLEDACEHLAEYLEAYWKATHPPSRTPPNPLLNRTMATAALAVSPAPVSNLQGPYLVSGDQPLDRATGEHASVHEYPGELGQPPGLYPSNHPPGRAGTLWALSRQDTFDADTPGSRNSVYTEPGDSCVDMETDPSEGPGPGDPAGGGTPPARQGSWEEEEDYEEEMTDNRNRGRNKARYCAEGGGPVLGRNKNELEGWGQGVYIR

Usually IC50 stands for the midpoint of a concentration-inhibition curve. Consider `CN1CCC[C@H]1CN1CCN(C(=O)NC(c2ccccc2)c2ccccc2)CC1` [Compound 25], for which, in assay [1] (setting [3]), the IC50 was more than 5900 nM.
Regarding `CN1CCC(C(c2ccc(Cl)cc2)N2CCN(C(=O)NC(c3ccccc3)c3ccccc3)CC2)CC1` (centres unmarked) [Compound 24, 4-[(1-Methyl-piperidin-4-yl)-(4-chloro-phenyl)-methyl]-piperazine-1-carboxylic acid benzhydryl-amide], the IC50 in assay [1] (setting [3]) is 4310 nM; in assay [1] (setting [4]) it was 2460 nM.
As for `CN1CCCC(C(c2ccccc2)N2CCN(C(=O)NC(c3ccccc3)c3ccccc3)CC2)C1` (centres unmarked) [Compound 22, 4-[(1-Methyl-piperidin-3-yl)-phenyl-methyl]-piperazine-1-carboxylic acid benzhydryl-amide], the half-inhibitory concentration (IC50) was 6300 nM in assay [1] (setting [3]) and 2150 nM in assay [1] (setting [4]).
`Cc1ccc(C(C2CCN(C)CC2)N2CCN(C(=O)NC(c3ccccc3)c3ccccc3)CC2)c(C)c1` (centres unmarked) [Compound 36, 4-[(1-Methyl-piperidin-4-yl)-(2,4-dimethyl-phenyl)-methyl]-piperazine-1-carboxylic acid benzhydryl-amide]: the half-maximal inhibitory concentration (IC50) stood at 1300 nM in assay [2] (setting [5]) and 1900 nM in assay [2] (setting [6]).
Consider `Cc1ccc(C(c2ccccc2)N2CCN(C(=O)NC(c3ccccc3)c3ccccc3)CC2)c(C)c1` (centres unmarked) [Compound 3], for which the half-inhibitory concentration (IC50) in assay [1] (setting [3]) was 2710 nM; in assay [1] (setting [4]), 2710 nM; in assay [2] (setting [5]), 28 nM; in assay [2] (setting [6]) it was 75 nM.
`O=C(NC(c1ccccc1)c1ccccc1)N1CCN(C(c2ccccc2)c2cccc(Cl)c2Cl)CC1` (centres unmarked) [Compound 7, 4-[(2,3-Dichloro-phenyl)-phenyl-methyl]-piperazine-1-carboxylic acid benzhydryl-amide]: the IC50 was determined as 230 nM in assay [1] (setting [3]), 200 nM in assay [1] (setting [4]), 324 nM in assay [2] (setting [5]) and 4200 nM in assay [2] (setting [6]). Besides, the “Phase I (% MPE)” value with rat formalin model was 61 ± 6 % MPE. In the assay on rat formalin model, the “Phase II Total (% MPE)” value is 71 ± 7 % MPE. Also, the “Phase IIA (% MPE)” value in the assay with rat formalin model is on record as 63 ± 9 % MPE. The “Phase IIB (% MPE)” value with rat formalin model is 85 ± 20 % MPE.
As to `CN1CCC(CN2CCN(C(=O)NC(c3ccccc3)c3ccccc3)CC2)CC1` [Compound 10, 4-(1-Methyl-piperidin-4-yl-methyl)-piperazine-1-carboxylic acid benzhydryl-amide], the IC50 in assay [1] (setting [3]) was found to be 260 nM; in assay [1] (setting [4]) it was 260 nM; in assay [2] (setting [5]) it was 20000 nM; in assay [2] (setting [6]), 20000 nM.
`CN1CCCC(CN2CCN(C(=O)NC(c3ccccc3)c3ccccc3)CC2)C1` (centres unmarked) [Compound 12, 4-(1-Methyl-piperidin-3-ylmethyl)-piperazine-1-carboxylic acid benzhydryl-amide]: the IC50 in assay [1] (setting [3]) worked out at 1700 nM; in assay [1] (setting [4]), 490 nM.
Turning to `O=C(NC(c1ccccc1)c1ccccc1)N1CCN(C(c2ccccc2)c2ccc(Cl)cc2)CC1` (centres unmarked) [Compound 4, 4-[(4-Chloro-phenyl)-phenyl-methyl]-piperazine-1-carboxylic acid benzhydryl-amide], the IC50 worked out at 290 nM in assay [1] (setting [3]), 280 nM in assay [1] (setting [4]), 56 nM in assay [2] (setting [5]) and 171 nM in assay [2] (setting [6]). The “Phase I (% MPE)” value in the assay with rat formalin model amounted to 71 ± 15 % MPE. In addition, in the assay on rat formalin model, the “Phase II Total (% MPE)” value is 74 ± 11 % MPE. Further, the “Phase IIA (% MPE)” value in the assay on rat formalin model was found to be 70 ± 13 % MPE. Besides, the “Phase IIB (% MPE)” value in the assay on rat formalin model was determined as 88 ± 9 % MPE.
As for `O=C(NC(c1ccccc1)c1ccccc1)N1CCN(C(c2ccccc2)c2ccc(Cl)cc2Cl)CC1` (centres unmarked) [Compound 2, 4-[(2,4-Dichloro-phenyl)-phenyl-methyl]-piperazine-1-carboxylic acid benzhydryl-amide], the IC50 in assay [1] (setting [3]) is 1480 nM; in assay [1] (setting [4]), 1480 nM; in assay [2] (setting [5]) it was 66 nM; in assay [2] (setting [6]), 221 nM.
For the compound `CN(C)CCCN1CCN(C(=O)NC(c2ccccc2)c2ccccc2)CC1` [Compound 11, 4-(3-Dimethylamino-propyl)-piperazine-1-carboxylic acid benzhydryl-amide], the IC50 in assay [1] (setting [3]) stood at 2170 nM. The IC50 in assay [1] (setting [4]) came to 990 nM. Besides, in the assay with rat formalin model, the “Phase I (% MPE)” value was 59 ± 13 % MPE, the “Phase II Total (% MPE)” value is 60 ± 12 % MPE, the “Phase IIA (% MPE)” value is given as 50 ± 14 % MPE and the “Phase IIB (% MPE)” value was 94 ± 22 % MPE.
Turning to `CN(C(=O)N1CCN(C(c2ccccc2)c2ccccc2)CC1)C(c1ccccc1)c1ccccc1` [Compound 39, 4-(Diphenyl-methyl)-piperazine-1-carboxylic acid benzhydryl-methyl-amide], the half-inhibitory concentration (IC50) in assay [1] (setting [3]) was 660 nM; in assay [1] (setting [4]), 310 nM.
For `CN1CCC(C(c2ccccc2Cl)N2CCN(C(=O)NC(c3ccccc3)c3ccccc3)CC2)CC1` (centres unmarked) [Compound 37, 4-[(1-Methyl-piperidin-4-yl)-(2-chloro-phenyl)-methyl]-piperazine-1-carboxylic acid benzhydryl-amide], the concentration for half-maximal inhibition (IC50) was determined as 1330 nM in assay [1] (setting [3]) and 910 nM in assay [1] (setting [4]).
Take `CN(C(=O)N1CCN(CCN2CCCC2)CC1)C(c1ccccc1)c1ccccc1` [Compound 32, 4-(2-pyrrolidin-1-ylethyl)-piperazine-1-carboxylic acid benzhydryl-methyl-amide]: the IC50 in assay [1] (setting [3]) was more than 20000 nM; in assay [1] (setting [4]) it was more than 8800 nM; in assay [2] (setting [5]), more than 6720 nM; in assay [2] (setting [6]) it was more than 23000 nM.
As for `CN1CCC(C(c2ccccc2)N2CCN(C(=O)NC(c3ccccc3)c3ccccc3)CC2)CC1` (centres unmarked) [Compound 20, 4-[(1-Methyl-piperidin-4-yl)-phenyl-methyl]-piperazine-1-carboxylic acid benzhydryl-amide], the IC50 in assay [2] (setting [5]) was determined as 3400 nM; in assay [2] (setting [6]), 5100 nM.
`CN1CCC(C(c2cccc(Cl)c2)N2CCN(C(=O)NC(c3ccccc3)c3ccccc3)CC2)CC1` (centres unmarked) [Compound 38, 4-[(1-Methyl-piperidin-4-yl)-(3-chloro-phenyl)-methyl]-piperazine-1-carboxylic acid benzhydryl-amide]: the IC50 in assay [1] (setting [3]) was 3310 nM; in assay [1] (setting [4]), 1560 nM.
On to `O=C(NC(c1ccccc1)c1ccccc1)N1CCN(CCN2CCCC2)CC1` [Compound 21], for which the IC50 in assay [1] (setting [3]) was 1000 nM; in assay [1] (setting [4]), 1000 nM; in assay [2] (setting [5]), 2000 nM; in assay [2] (setting [6]), 15000 nM.
On to `O=C(NC(c1ccccc1)c1ccccc1)N1CCN(C(c2ccccc2)C2CCNCC2)CC1` (centres unmarked) [Compound 35, 4-[Piperidin-4-yl-phenyl-methyl]-piperazine-1-carboxylic acid benzhydryl-amide], for which the results for the IC50 in assay [1] (setting [3]), in assay [1] (setting [4]) and in assay [2] (setting [6]) were 3470 nM, 2160 nM and 663 nM, respectively.
